Literature values in PMC8388771, “Cationic Peptidomimetic Amphiphiles Having a N-Aryl- or N-Naphthyl-1,2,3-Triazole Core Structure Targeting Clostridioides (Clostridium) difficile: Synthesis, Antibacterial Evaluation, and an In Vivo C. difficile Infection Model” (Antibiotics, 2021).
Values after ≈ are worked out from the molar mass of the structure shown.

Experiments:
[1] = test system: S. aureus ATCC 29213; set-up: method as in ref 30 (1), 31 (2, 4), 19 (3); conditions: Table 2; ref 30 (1), 31 (2, 4), 19 (3); cited from earlier work
[2] = test system: E. faecalis ATCC 29212; set-up: method as in ref 30 (1), 31 (2, 4), 19 (3); conditions: Table 2; ref 30 (1), 31 (2, 4), 19 (3); cited from earlier work
[3] = test system: S. pneumoniae ATCC 49619; set-up: method as in ref 30 (1), 31 (2, 4), 19 (3); conditions: Table 2; ref 30 (1), 31 (2, 4), 19 (3); cited from earlier work
[4] = test system: E. coli ATCC 25922; set-up: method as in ref 30 (1), 31 (2, 4), 19 (3); conditions: Table 2; ref 30 (1), 31 (2, 4), 19 (3); cited from earlier work
[5] = set-up: method as in PMID 30901686; conditions: cited from earlier work; for appearance in the solubility assay: Figure 1
[6] = test system: C. difficile strain M7404 (RT027); set-up: method as in ref 30 (compound 1), 19 (compound 3); conditions: Table 2 footnote g; ref 30 (compound 1), 19 (compound 3); cited from earlier work
[7] = test system: C. difficile strain R20291; set-up: method as in ref 30 (compound 1), 19 (compound 3); conditions: Table 2 footnote h; ref 30 (compound 1), 19 (compound 3); cited from earlier work
[8] = test system: C. difficile; conditions: Figure 1; cited from earlier work
[9] = test system: C. difficile 132 (RT027); set-up: method as in PMID 30831407; conditions: Table 2; cited from earlier work
[10] = test system: S. aureus NCTC 10442; set-up: method as in ref 31 (2, 4), 19 (3); conditions: Table 2; MRSA; ref 31 (2, 4), 19 (3); cited from earlier work
[11] = test system: HEK293 cells; set-up: method as in PMID 30831407; conditions: Table 2; cited from earlier work
[12] = test system: S. aureus ATCC 43300; set-up: method as in PMID 30831407; conditions: Table 2; MRSA; cited from earlier work
[13] = test system: sheep erythrocytes; conditions: Table 2 HC50 column, footnote i; sheep erythrocytes; cited from earlier work
[14] = test system: C. difficile; set-up: method as in PMID 30901686; conditions: murine CDI model; 10% DMSO group 0%; cited from earlier work

SMILES	MIC S. aureus ATCC 29213 [1] [µg/mL]	MIC E. faecalis ATCC 29212 [2] [µg/mL]	MIC S. pneumoniae ATCC 49619 [3] [µg/mL]	MIC E. coli ATCC 25922 [4] [µg/mL]	appearance in the solubility assay [5]	SR = solubility ratio relative to that of compound 1 [5]	MIC C. difficile strain M7404 (RT027) [6]	MIC C. difficile strain R20291 (RT207) [7]	MIC against C. difficile [8] [µg/mL]	MIC C. difficile 132 (RT027) [9] [µg/mL]	MIC S. aureus NCTC 104422 [10] [µg/mL]	CC50 [11] [µg/mL]	MIC S. aureus ATCC 43300 [12] [µg/mL]	% hemolysis at 50 µg/mL [13] [% ^i]	survival rate at 24 h [14] [%]
CC(C)CCOC(=O)[C@H](CC(C)C)NC(=O)[C@@H](CCCNC(=N)N)NC(=O)[C@@H](CCCCN)NC(=O)COc1ccc2ccccc2c1-c1c(OCCC(C)C)ccc2ccccc12 [Compound 1]	2 (≈ 2.27 µM)	2 (≈ 2.27 µM)	2 (≈ 2.27 µM)	16 (≈ 18.1 µM)	homogenous suspension	1	8 ^g μg/mL	8 ^h μg/mL	8 (≈ 9.07 µM)						
CC(C)CCOc1ccc2ccccc2c1-c1c(OCc2cn(C[C@@H](CCCCN)NC(=O)[C@@H](CCCNC(=N)N)NC(=O)CCc3ccccc3)nn2)ccc2ccccc12 [Compound 2]	4 (≈ 4.76 µM)	4 (≈ 4.76 µM)	4 (≈ 4.76 µM)	8 (≈ 9.52 µM)	homogenous suspension	3			8 (≈ 9.52 µM)	32 (≈ 38.1 µM)	4 (≈ 4.76 µM)	27.4 (≈ 32.6 µM)	2 (≈ 2.38 µM)	94	50
